Among the data in a melting point compilation (Tetko et al.; mined from patent text by program, amines drawn as free bases though some values may be those of a salt) are melting point values, retold here.

Each structure is given as a SMILES string.

With `COC(=O)C(CC(=O)c1cc(Cl)c(C)c(Cl)c1)OC` (stereo not drawn), the melting point was 75 to 78 °C.
With `CS(=O)(=O)C=C(N)C1(c2ccc(Cl)cc2)CCC1` the figure was 125 to 126 °C.
`CCc1cc2nccc(-c3cccnc3)n2n1` had a melting point of 103 to 104 °C.
Turning to `Cc1nc(-n2ccc(OCc3ccccc3)cc2=O)sc1C(=O)NCc1ccc(F)cc1`, the melting point is 223 to 225 °C.
In turn, `CC(C)(C)OC(=O)N[C@H]1CC[C@@H](OS(C)(=O)=O)C1` displayed a melting point of 88 to 89 °C.
`O[C@@H]1C=C[C@H](n2cnc3c(Cl)ncnc32)C1` (racemic): the melting point was 118 °C.
`O=C(CCc1ccccc1)N1C(=O)OC[C@@H]1Cc1ccccc1` came in with a melting point of 92 to 95 °C.
With `CC(C)(C)OC(=O)N1CCC(CCNC(=O)c2noc(-c3ccc(C#N)cc3)n2)CC1` the figure was 138 to 139 °C; with `O=C1NCCCC12c1ccccc1-c1ccccc12`, more than 250 °C.
Compound `O=C(Nc1ccc(-n2nc(C(F)(F)F)cc2C(F)(F)F)cc1)c1ccc(Br)cc1` had a melting point of 205 to 207 °C.
With `COc1ccc(NC2=NC(C)(C)Cc3cc(OC)c4c(c32)CC(C)(C)O4)cc1` the figure was 139 to 140 °C; with `O=C(O)C(=O)Nc1ccc(Oc2ccc(NC(=O)C(=O)O)cc2)cc1`, more than 320 °C.
Compound `O=C1C2=C(NC(=O)C3(N2)SCCS3)c2ccccc21` returned a melting point of more than 300 °C.
With `Cc1cn(C)cc(-c2cccc(Cl)c2)c1=O` the figure was 143 to 144 °C; with `BrCCCOc1ccc(-c2ccccc2)cc1`, 60 to 63 °C.
Regarding `O=C(Oc1ccccc1)N1CCC(S(=O)(=O)c2ccccc2F)CC1`, the melting point lay within 160 to 161 °C.
The compound `COc1ccccc1[N+]1([O-])CCNCC1` gave a melting point of 157 to 160 °C.
For the compound `Nc1cccc(S(=O)(=O)NC2(CO)CCCC2)c1`, the melting point is 130 to 132 °C.
With `NC(=O)c1c(F)ccc(OCC(=O)O)c1F` the figure was 152 to 153 °C; with `O=C(O)CCCCCOc1nc(-c2ccccc2)cc(-c2ccccc2)n1`, 127 to 129 °C; with `CCOC(=O)c1nc(O)sc1-c1ccncc1`, 204 to 206 °C.
The compound `Cc1ccsc1C(=O)c1cc(CN(C)C)c(O)c(C(C)(C)C)c1` returned a melting point of 149 to 150 °C.
The compound `COC(=O)C1=C(C)NC(C)=C(C(=O)OCCN2CCN(c3cccc(Cl)c3)CC2)C1c1cccc([N+](=O)[O-])c1` (stereo not drawn) registered a melting point of 65 to 68 °C.
`CCOC(=O)c1cnn(-c2ccc(OC(F)(F)F)cc2)c1N` showed a melting point of 102 to 103 °C.
Take `Cc1nccn1-c1cccc(C2=Nc3cc(O)c(-c4ccccc4F)cc3NC(=O)C2)c1`: the melting point was more than 250 °C.
With `CC(O)c1ccccc1-c1ccc(C(=O)N2Cc3ccc(C(=O)NCc4cccnc4)n3Cc3ccccc32)cc1` (single isomer, unassigned; (-)) the figure was 118 °C.
With `CC(C)=Nc1c(-c2ccccc2)[nH]c(C)c1C(N)=O` the figure was 221 to 223 °C; with `CC(C)(O)c1ccc(CNC(=O)c2cccnc2Oc2cccc3c2CCC3=O)cc1`, 145 to 147 °C.
With `Cc1cn(-c2cccc([N+](=O)[O-])c2)cn1` the figure was 119 to 120 °C.
With `O=Cc1ccc(-c2cnc3cnc(-c4ccc(O)cc4)nc3c2)cc1`, the melting point was more than 268 °C.
With `CCOC(=O)CC1c2cc(OC)ccc2N(c2nc(Cl)nc3ccccc23)C1C` (stereo not drawn) the figure was 111 to 112 °C; with `CNC(=O)C(Sc1nc2cc(Cl)ccc2s1)c1ccccc1` (stereo not drawn), 170 to 171 °C; with `CC(CCC(=O)O)CC(C)CC(C)C(=O)C=C(O)C(C)CC(C)CC=CC(C)C(O)C(C)C(O)CC1CCC(C)(C2CCC(C)(C(C)O)O2)O1` (stereo not drawn), 203 °C.
With `Cn1ccnc1C(C)(C)O` the figure was 128 to 129 °C; with `COCC1(C)CCCOc2cc(/C=C/c3ccc(C(=O)O)cc3)ccc21` (stereo not drawn), 194 to 196 °C.
With `Fc1ccc(Nc2ncnc3cnc(N4CCC(N5CCNCC5)CC4)nc23)cc1Cl` the figure was 178 to 180 °C.
As for `CCC(=O)c1nc(C)c(C)nc1C`, the melting point lay within 65 to 67 °C.
Compound `CC(C)CNC(=O)C(C)NC(=O)C(C)NC(=O)C(C)NC(=O)CCCC(=O)O` (stereo not drawn) displayed a melting point of 292 to 293 °C.
For the compound `O=C(O)c1ccc2c(c1)CCC(CO)O2` (stereo not drawn), the melting point worked out at 150 °C.
With `OC(c1cc2ccccc2s1)C1CCN(CCc2ccccc2)CC1` (stereo not drawn) the figure was 178 °C; with `COc1ccc(C=C2NC(=O)NC2=O)cc1`, 242 to 244 °C.
`Cc1ncccc1Oc1ccc(NC(=O)C=Cc2ccccc2Cl)cn1` showed a melting point of 187 to 189 °C.
`COc1cc(OC)nc(C(C#N)c2ccccc2[N+](=O)[O-])n1` (stereo not drawn) registered a melting point of 88 to 89 °C.
With `COc1ccc2ncc(CO)c(O)c2c1` the figure was 327 to 334 °C; with `Cc1ccc2cccc(OCc3c(Cl)ccc(S(=O)(=O)N(CCCCCCCC(=O)O)Cc4ccccc4)c3Cl)c2n1`, 100 °C; with `CCOC(=O)CCNC(=O)c1cn2nc(Cl)ccc2n1`, 132 to 134 °C.
Take `O=c1[nH]c(CCCOc2cccc(CN3CCCCC3)c2)ncc1Cc1ccnc(O)c1`: the melting point was in the range of 167 to 169 °C.
With `COc1ccc(C(=O)N2CCc3cc(OCc4ccccc4)c(OC)cc3C2=O)cc1`, the melting point lay in the range of 151 to 152 °C.
The compound `Cc1cc(Cl)ccc1OCC(=O)N1Cc2ccc(C(=O)NCc3cccnc3)n2Cc2ccccc21` registered a melting point of 168 °C.
`Cc1cc(C)n(-c2nc(Nc3ccc(C(F)(F)F)cc3)c3ccccc3n2)n1`: the melting point was 219 to 220 °C.
`CCCC[C@H](NC(=O)[C@H](COC(C)(C)C)NC(=O)OCc1ccccc1)C(=O)CSCc1ccco1` displayed a melting point of 71 to 73 °C.
With `COc1ccc(C(=O)c2ccnn2Cc2ccccc2)c(Cl)c1Cl` the figure was 102 to 105 °C.
Turning to `NS(=O)(=O)c1cc(CCNC(=O)/C=C/c2cccs2)ccc1OCCc1ccccc1`, the melting point lay within 170 to 174 °C.
With `CCCc1nn(CC)c2c(=O)[nH]c(C)nc12` the figure was 211 to 213 °C.
`CCn1nc(-c2nc(C#N)c(C#N)nc2-c2ccccc2)ccc1=O` displayed a melting point of 201 to 203 °C.
With `CCCCCCCCCCCCCCOc1cc(OCCCOc2ccc(OCc3ccccc3)cc2)cc(C(=O)O)c1` the figure was 77 to 79 °C; with `COC(=O)c1cccc(-c2c(C)c(C(=O)c3ccc(N)c(C(=O)OC)c3)n3ccccc23)c1`, 232 °C.
Consider `COC(=O)c1cccc(Cn2nc(C(N)=O)c3ccccc32)c1`, for which the melting point lay in the range of 166 to 168 °C.
As to `O=c1c2c(c3cccnc3n1-c1ccccc1)OCCC2`, the melting point fell in the range of 253 to 255 °C.
`COc1cc(C)c(C(=O)c2c(Cl)cccc2Cl)c(O)c1OC` had a melting point of 161 °C.
With `COc1ccc(C=C2NC(=O)N(C)C2=O)cc1` the figure was 221 to 222 °C; with `CO[C@@H](C(=O)N[C@H]1CC[C@@H](OC(=O)CCc2ccccc2)CNC1=O)[C@H](O)[C@@H](O)[C@H](O)/C=C/C(C)(C)C`, 75 to 77 °C; with `CCCCCCCOc1cc(F)nc(N)n1`, 30 to 32 °C.

As usually defined, the melting point is the temperature, or range, at which the solid turns liquid.
